# Values of other authors in patent publication US11229595B2, “Skin barrier preparation and method therefor” (Johnson & Johnson Consumer Inc., priority 2019, dated 2022).
# Test system: skin
# Conditions: eight volunteers, four compounds compared, patches during 24 hours
row,SMILES,increase of TEWL
1,CN(C)CCCN1c2ccccc2CCc2ccccc21 [imipramine],increased the least TEWL
2,CCCCCCCCC(=O)O [nonanoic acid],increased the least TEWL
